Laboratory results taken from patent US10544085B2, “Oils having antibacterial activity” (The United States of America, as Represented by the …, priority 2014, dated 2020).
Values after ≈ are worked out from the molar mass of the structure shown.

Assays:
Streptococcus agalactiae = experiment: MIC, broth microdilution; format: cell-based; settings: HPLC fractions, serial two-fold dilutions approximately 128 μg/ml to approximately 2 μg/ml
Description: The eight bacterial strains listed in Table 1 are used in the antibacterial activity assays. Streptococcus agalactiae and S. uberis (gifts from D. Donovan, ARS, USDA, Beltsville, Md.), Lactobacillus fermentum laboratory strain number 0315-1 (Bischoff, et al., Biotechnology and Bioengineering 103:117-122 (2009)), Enterococcus faecalis (ATCC Accession Number 29212), Bacillus subtilis MW10 (Bacillus Genetic Stock Center Accession Number 1A751), Staphylococcus aureus (ATCC Accession Number 29213), Escherichia coli (ATCC Accession Number 25922), and Pseudomonas aeruginosa (ATCC Accession Number 27853) are obtained from the indicated source. S. uberis, S. agalactiae, S. aureus, E. coli, and P. aeruginosa are cultured in tryptic soy broth (TSB) at 37° C. TSB contains the following: peptone from casein 17.0 g/L; peptone from soymeal 3.0 g/L; D(+)glucose 2.5 g/L; sodium chloride 5.0 g/L; and di-potassium hydrogen phosphate 2.5 g/L. E. faecalis are cultured in Bacto Brain Heart Infusion broth (BHI) (Becton Dickenson, Franklin Lakes, N.J.) at 37° C. L. fermentum are cultured in MRS broth at 37° C. MRS broth contains the following: peptone from casein 10.0 g/L; meat extract 8.0 g/L; yeast extract 4.0 g/L; D(+)-glucose 20.0 g/L; di-potassium hydrogen phosphate 2.0 g/L; Tween® 80 1.0 g/L; di-ammonium hydrogen citrate 2.0 g/L; sodium acetate 5.0 g/L; magnesium sulfate 0.2 g/L; and manganese sulfate 0.04 g/L. […]
Fractions 5-14 that were obtained from the HPLC fractionation (above) are assayed for antibacterial activity against S. agalactiae by the broth dilution method with serial two-fold dilutions of each component ranging from approximately 128 μg/ml to approximately 2 μg/ml. Fraction 12, containing mannitol-liamocin B1 had the lowest minimum inhibitory concentration (i.e. highest antibacterial activity) of the fractions.

S. agalactiae = experiment: Disc diffusion assay of HPLC fractions; format: cell-based, Streptococcus agalactiae; settings: 5 mg/ml, 10 μl per 6 mm disc, 37° C. overnight
Protocol: Antibacterial activity for each fraction of the HPLC is measured qualitatively by disc diffusion assay. S. agalactiae at a density of 0.5 McFarland units are diluted 1:100 in PBS, and 20 μl are evenly spread on TSB agar media. Paper discs (6 mm diameter) are placed on surface. HPLC fractionated oils are dissolved to a concentration of 5 mg/ml in solvent (1:1 dimethylsulfoxide:2-butanone), and samples (10 μl) are applied to each disc. Plates are incubated at 37° C. overnight, and scored for a growth inhibition zone surrounding the disc, which indicates antibacterial activity. 5 mg/ml of purified oil is used as positive control, and acetonitrile solvent for HPLC is used as negative control.

E. faecalis = settings: cited from earlier work
[1] = system: three strains of Staphylococcus aureus; settings: cited from earlier work
Enterococcus faecium = settings: cited from earlier work
Streptococcus epidermis = settings: cited from earlier work

## mannitol-liamocin A2 [Fraction 10]
Streptococcus agalactiae; listed as 10
  Minimum Inhibitory Concentration: 64 µg/mL

## mannitol-liamocin A1 [Fraction 8]
S. agalactiae
  growth inhibition zone surrounding the disc (antibacterial activity, qualitative): exhibit bactericidal activity
Streptococcus agalactiae; listed as 8
  Minimum Inhibitory Concentration: 64 µg/mL

## mannitol-liamocin B1 [Fraction 12]
Streptococcus agalactiae; listed as 12
  Minimum Inhibitory Concentration: 16 µg/mL

## mannitol-liamocin B2 [Fraction 13]
S. agalactiae
  growth inhibition zone surrounding the disc (antibacterial activity, qualitative): exhibit bactericidal activity
Streptococcus agalactiae
  Minimum Inhibitory Concentration: 128 µg/mL

## CCCCC[C@@H](O)C[C@@H](O)CC(=O)O[C@H](CCCCC)C[C@@H](O)CC(=O)O[C@H](CCCCC)C[C@@H](O)CC(=O)O [Exophilin A]
E. faecalis
  MIC: 25 µg/mL (≈ 43.3 µM)
[1]
  MIC: 50 µg/mL (≈ 86.7 µM)
Enterococcus faecium
  MIC: 12.5 µg/mL (≈ 21.7 µM)
Streptococcus epidermis
  MIC: > 100 µg/mL

## mannitol-liamocin A2 [Fraction 9]
S. agalactiae
  growth inhibition zone surrounding the disc (antibacterial activity, qualitative): exhibit bactericidal activity
Streptococcus agalactiae; listed as 9
  Minimum Inhibitory Concentration: 128 µg/mL

## mannitol-liamocin A1 [Fraction 7]
Streptococcus agalactiae; listed as 7
  Minimum Inhibitory Concentration: >128 µg/mL

## mannitol-liamocin B1 [Fraction 11]
S. agalactiae
  growth inhibition zone surrounding the disc (antibacterial activity, qualitative): exhibit bactericidal activity
Streptococcus agalactiae; listed as 11
  Minimum Inhibitory Concentration: 64 µg/mL
